Laboratory results published in BindingDB's records for patent US11814384 (Kinnate Biopharma, 2023).
Entries after “also recorded” stand apart in the source; their conditions may differ.

Molecular target: Serine/threonine-protein kinase B-raf (Homo sapiens, UniProt P15056)
Experiment: Enzymatic BRAF Kinase Activity Assay
Method: Small molecule inhibition of the BRAF kinases was measured using ADP-Glo assay. In the assay, […], resulting in luciferase reaction and luminescent readout with light generated proportional to the relative kinase activity. Compounds diluted in DMSO were used in 10-point, 3-fold dose curve for both assays. Final concentrations of 6 nM BRAF (CarnaBio, Cat. 09-122) or 3 nM RAF1 (CarnaBio, Cat. 09-125) and 30 nM MEK1 substrate (Millipore, Cat. 14-420) were incubated with 3 µM ATP, 10 mM MgCl2, 0.003% Brij-35, 2 mM DTT, 0.05% BSA, 1 mM EGTA, and 50 mM HEPES for 90 minutes at room temp prior to addition of ADP-Glo reagent (Promega, Cat. V9102) for 40 minutes, and detection reagent for 45 minutes. Luminescence was read on an Envision plate reader (PerkinElmer) and percent remaining activity was used to calculate IC50 using a four-parameter fit model using Dotmatics Knowledge Solutions Studies curve fitting (Dotmatics, Bishops Stortford, UK, CM23).

Sequence of Serine/threonine-protein kinase B-raf (P15056 whole entry): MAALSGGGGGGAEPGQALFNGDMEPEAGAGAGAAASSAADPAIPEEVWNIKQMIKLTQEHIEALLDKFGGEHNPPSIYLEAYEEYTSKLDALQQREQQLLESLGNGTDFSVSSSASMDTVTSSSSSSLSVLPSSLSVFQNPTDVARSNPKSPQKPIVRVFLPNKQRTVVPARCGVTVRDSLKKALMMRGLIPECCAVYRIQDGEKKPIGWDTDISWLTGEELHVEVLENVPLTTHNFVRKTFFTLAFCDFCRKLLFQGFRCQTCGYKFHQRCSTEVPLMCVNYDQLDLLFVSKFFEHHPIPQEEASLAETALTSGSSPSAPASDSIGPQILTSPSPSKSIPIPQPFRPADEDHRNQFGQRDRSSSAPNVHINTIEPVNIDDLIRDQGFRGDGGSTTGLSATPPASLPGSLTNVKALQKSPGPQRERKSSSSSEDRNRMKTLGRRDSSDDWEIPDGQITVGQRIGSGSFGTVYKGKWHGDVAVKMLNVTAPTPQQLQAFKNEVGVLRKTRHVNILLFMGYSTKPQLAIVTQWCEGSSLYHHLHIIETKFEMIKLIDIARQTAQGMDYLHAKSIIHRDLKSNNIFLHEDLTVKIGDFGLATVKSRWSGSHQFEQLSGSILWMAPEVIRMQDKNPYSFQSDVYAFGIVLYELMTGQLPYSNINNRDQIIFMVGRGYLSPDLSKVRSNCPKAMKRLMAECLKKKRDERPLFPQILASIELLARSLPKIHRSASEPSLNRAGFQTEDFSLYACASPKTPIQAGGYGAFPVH

| Structure (SMILES) | IC50 |
| --- | --- |
| Cc1cc(F)c(NC(=O)c2cnn(C(C)(C)C)c2F)cc1-c1cc(C2=CCOCC2)c2nccn2c1 [US11814384, Example 153] | in the range around 5.5 nM |
| CC(C)(C)n1ncc(C(=O)Nc2cc(-c3cc(N4CCOCC4)c4nccn4c3)c(Cl)cc2F)c1F [US11814384, Example 98] | in the range around 5.5 nM |
| Cc1ccc(NC(=O)c2cc(C(C)(C)C)ncc2F)cc1-c1cc(N2CCOCC2)c2nccn2c1 [US11814384, Example 95] | in the range around 55 nM |
| Cc1cc(F)c(NC(=O)c2ncn(C(C)(C)C)c2F)cc1-c1cc(N2CCOCC2)c2nccn2c1 [US11814384, Example 160] | in the range around 5.5 nM |
| Cc1cn2cc(-c3cc(NC(=O)c4cn(C(C)(C)C)c(F)n4)c(F)cc3C)cc(N3CCOCC3)c2n1 [US11814384, Example 148] | in the range around 5.5 nM |
| Cc1cc(F)c(NC(=O)c2cn(C(C)(C)C)cc2F)cc1-c1cc(N2CCOCC2)c2nccn2c1 [US11814384, Example 66] | in the range around 5.5 nM |
| Cc1cc(F)c(NC(=O)[C@@H]2CCN(CC(F)(F)F)C2)cc1-c1cc(N2CCOCC2)c2nccn2c1 [US11814384, Example 46] | in the range around 5.5 nM |
| Cc1cc(F)c(NC(=O)N2CC[C@@H](CC(F)(F)F)C2)cc1-c1cc(N2CCOCC2)c2nn(C)c(C)c2c1 [US11814384, Example 16] | in the range around 5.5 nM |
| Cc1cn2cc(-c3cc(NC(=O)c4cnn(C(C)(C)C)c4F)c(F)cc3C)cc(N3CCOCC3)c2n1 [US11814384, Example 143] | in the range around 5.5 nM |
| Cc1cc(F)c(NC(=O)N2CCC(C(C)C(F)F)C2)cc1-c1cc(N2CCOCC2)c2nccn2c1 (stereo not drawn) [US11814384, Example 87] | in the range around 5.5 nM; also recorded: in the range around 55 nM |
| Cc1ccc(NC(=O)N2CC[C@@H](CC(F)(F)F)C2)cc1-c1cc(N2CC3CCC(C2)O3)c2nccn2c1 [US11814384, Example 38] | in the range around 5.5 nM |
| CCc1nc2cc(-c3cc(C(=O)Nc4cn(C(C)(C)C)nc4F)c(F)cc3C)cc(N3CCOCC3)n2n1 [US11814384, Example 76] | in the range around 5.5 nM |
| Cc1ccc(NC(=O)c2ccnc(C(F)(F)F)c2)cc1-c1cc(N2CCOCC2)c2nc3c(n2c1)COCC3 [US11814384, Example 33] | in the range around 5.5 nM |
| Cc1ccc(NC(=O)c2ccnc(C(F)(F)F)c2)cc1-c1cc(N2CCOCC2)c2nc3c(n2c1)CCOC3 [US11814384, Example 36] | in the range around 5.5 nM |
| Cc1c(-c2cc(N3CCOCC3)c3nccn3c2)cc(NC(=O)c2cnn(C(C)(C)C)c2F)c(F)c1F [US11814384, Example 159] | in the range around 5.5 nM |
| Cc1ncc(NC(=O)c2cnn(C(C)(C)C)c2F)cc1-c1cc(N2CCOCC2)c2nccn2c1 [US11814384, Example 137] | in the range around 5.5 nM |
| Cc1cc(F)c(NC(=O)c2cnn(C(C)(C)C)c2F)cc1-c1cc(N2CCOCC2)c2ncc(F)n2c1 [US11814384, Example 111] | in the range around 55 nM |
| Cc1cc(F)c(N)cc1-c1cc(N2CCOCC2)c2nccn2c1 [US11814384, Example 112] | in the range around 55 nM |

Results, then the compound that gave them:

| IC50 | Structure (SMILES) |
| --- | --- |
| in the range around 5.5 nM | Cc1cc(F)c(C(=O)Nc2cnn(C(C)(C)C)c2F)cc1-c1cc(N2CCOCC2)c2nc(C(C)C)nn2c1 [US11814384, Example 308] |
| in the range around 55 nM | Cc1nc2cc(-c3cc(NC(=O)c4coc(C(C)(C)C)n4)c(F)cc3C)cc(N3CCOCC3)n2n1 [US11814384, Example 292] |
| in the range around 55 nM | CCc1nc2cc(-c3cc(NC(=O)c4cnc(C(C)(C)C)o4)c(F)cc3C)cc(N3CCOCC3)n2n1 [US11814384, Example 305] |
| in the range around 5.5 nM | Cc1cc(F)c(C(=O)Nc2cnn(C(C)(C)C)c2F)cc1-c1cc(N2CCOCC2)n2nc(C3CC3)nc2c1 [US11814384, Example 307] |
| in the range around 5.5 nM | Cc1cc(F)c(NC(=O)c2ccnc(N(C)C(F)(F)F)c2)cc1-c1cc(N2CCOCC2)c2nccn2c1 [US11814384, Example 263] |
| in the range around 55 nM | Cc1cc(F)c(NC(=O)c2cnn(C(C)(C)C)c2F)cc1-c1cc(N2CCOCC2)c2nnnn2c1 [US11814384, Example 220] |
| in the range around 5.5 nM | Cc1nc2c(N3CCOCC3)cc(-c3cc(NC(=O)c4cnc(C(C)(C)C)o4)c(F)cc3C)cn2n1 [US11814384, Example 293] |
| in the range around 5.5 nM | Cc1cc(F)c(NC(=O)c2cnn(C(C)(C)C)c2F)cc1-c1cn2ccnc2c(N2CCOCC2)n1 [US11814384, Example 228] |
| in the range around 5.5 nM | Cc1cc(F)c(NC(=O)c2cnn(C(C)(C)C)c2F)cc1-c1cc(N2CCOCC2)n2nccc2c1 [US11814384, Example 162] |
| in the range around 5.5 nM | Cc1cc(F)c(NC(=O)c2cnn(C(C)(C)C)c2F)cc1-c1cc(N2CCOCC2)n2ncnc2c1 [US11814384, Example 189] |
| in the range around 5.5 nM | Cc1cc(F)c(NC(=O)c2ccnc(C34CC(C3)C4)c2)cc1-c1cc(N2CCOCC2)c2nccn2c1 [US11814384, Example 188] |
| in the range around 5.5 nM | Cc1cc(F)c(NC(=O)c2ccnc(N3CCCC3)c2)cc1-c1cc(N2CCOCC2)c2nccn2c1 [US11814384, Example 166] |
| in the range around 5.5 nM | Cc1cc(F)c(NC(=O)c2cnn(C(C)(C)C)c2F)cc1-c1cc(N2CC3CCC(C2)O3)c2nccn2c1 [US11814384, Example 180] |
| in the range around 5.5 nM | Cc1nc2c(N3CCOCC3)cc(-c3cc(NC(=O)c4cnn(C(C)(C)C)n4)c(F)cc3C)cn2n1 [US11814384, Example 303] |
| in the range around 5.5 nM | Cc1nc2cc(-c3cc(C(=O)Nc4cnn(C(C)(C)C)c4F)c(F)cc3C)cc(N3CCOCC3)n2n1 [US11814384, Example 283] |
